Measurements: patent US20080004282A1, “Compositions and methods for modulating gated ion channels” (PainCeptor Pharma Corporation, priority 2006, published 2008)
Where two headings read alike, the source gives them in different places.

Molecular target: T1, ASIC1a (Homo sapiens, UniProt P78348)
T1 sequence (P78348 1-528): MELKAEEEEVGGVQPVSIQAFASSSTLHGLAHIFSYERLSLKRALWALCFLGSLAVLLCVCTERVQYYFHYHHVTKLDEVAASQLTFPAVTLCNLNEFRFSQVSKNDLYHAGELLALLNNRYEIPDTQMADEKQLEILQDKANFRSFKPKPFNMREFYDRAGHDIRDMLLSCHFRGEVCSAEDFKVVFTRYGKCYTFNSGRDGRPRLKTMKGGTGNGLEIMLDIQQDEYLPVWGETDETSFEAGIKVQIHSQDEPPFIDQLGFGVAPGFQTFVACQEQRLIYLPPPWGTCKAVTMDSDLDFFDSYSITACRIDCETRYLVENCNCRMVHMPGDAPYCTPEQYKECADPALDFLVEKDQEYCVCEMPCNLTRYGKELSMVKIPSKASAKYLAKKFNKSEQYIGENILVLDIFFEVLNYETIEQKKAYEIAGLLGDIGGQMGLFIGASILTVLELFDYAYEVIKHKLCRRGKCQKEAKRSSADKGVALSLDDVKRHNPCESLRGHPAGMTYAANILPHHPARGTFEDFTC
Experiment: Two-electrode voltage clamp of acid-induced currents in Xenopus laevis oocytes
Type: cell-based
Set-up: expressed in transfected cells; host or cells: Xenopus laevis oocytes, nuclear microinjection of an expression vector such as pCDNA3
Settings: for inhibition at 50 µM: Xenopus oocytes, read-out: % inh. at 50 μM (Xo)
Protocol: Screening and Bioanalysis of ASIC Antagonists in Xenopus laevis oocytes
This example describes the in vitro assessment of the activity of the compounds of the present invention.
Two-electrode voltage clamp electrophysiological assays in Xenopus laevis oocytes expressing gated ion channels are performed as follows:
Oocytes are surgically removed from adult Xenopus laevis and treated for 2 h at room temperature with 1 mg/ml type I collagenase (Sigma) in Barth's solution under mild agitation. Selected oocytes at stage IV-V are defolliculated manually before nuclear microinjection of 2.5-5 ng of a suitable expression vector, such as pCDNA3, comprising the nucleotide sequence encoding a gated ion channel subunit protein. In such an experiment, the oocytes express homomultimeric proton-gated ion channels on their surface. In an alternate experiment, one, two, three or more vectors comprising the coding sequences for distinct gated ion channel subunits are co-injected in the oocyte nuclei. In the latter case, oocytes express heteromultimeric proton-gated ion channels. For example, ASIC2a and/or ASIC3 subunits in pcDNA3 vector are co-injected at a 1:1 cDNA ratio. After 2-4 days of expression at 19° C. in Barth's solution containing […] gentamicin and 1.8 mM CaCl2, gated ion channels are activated by applying an acidic solution (pH<7) and currents are recorded in a two electrode voltage-clamp configuration, using an OC-725B amplifier (Warner Instruments). Currents are acquired and digitized at 500 Hz on an Apple Imac G3 computer with an A/D NB-MIO-16XL interface (National Instruments) and recorded traces are post-filtered at 100 Hz in Axograph (Axon Instruments) (Neher, E. and Sakmann, B. (1976) Nature 260:799-802). Once impaled with the microelectrodes, oocytes are continuously superfused at 10-12 ml/min with a modified Ringer's solution containing 97 mM NaCl, 2 mM KCl, 1.8 mM CaCl2, and 10 mM HEPES brought to pH 7.4 with NaOH (Control Ringer). Test Ringer solution is prepared by replacing HEPES with MES and adjusting the pH to the desired acidic value. Compounds of the present invention are prepared in both the Control and Test Ringer solutions and applied to oocytes at room temperature through a computer-controlled switching valve system. Osmolarity of all solutions is adjusted to 235 mOsm with choline chloride. Similarly, recordings can also be acquired in an automated multichannel oocytes system as the OpusExpress™ (Molecular Devices, Sunnyvale, USA).
FIGS. 1A and 2A illustrate the inhibitory effects of Compounds 12 and 44 on acid-induced activation of recombinant homomeric hASIC1a channels. FIGS. 1A and 2A show the dose-dependent inhibition of the acid-induced hASIC1a currents recorded from Xenopus laevis oocytes using the two-electrode voltage clamp method (as described in this example) in the absence or presence of increasing concentration of the compounds.

SMILES | inhibition at 50 µM | IC50 (Xenopus laevis oocytes, three point dose-response, read-out: IC50, half maximal inhibition of the acid-evoked response in hASIC1a) | IC50
CCN1CCc2c(-c3ccccc3)cc(C#N)c(N)c2C1 [Compound 12, 8-Amino-2-ethyl-5-phenyl-1,2,3,4-tetrahydro-isoquinoline-7-carbonitrile] | > 50% | 5.9 µM | –
CCN1CCc2c(-c3cc(Cl)ccc3OC)cc(C#N)c(N)c2C1 [Compound 44] | > 50% | – | 8.5 µM
